Experiment [1] relates to bFGF transcription in human prostate cancer Du145 cells. Briefly: bFGF transcription in Du145 cells in vitro. Format: cell-based. The settings on record: 3 μM, 24 hour treatment. The method, then:
Human prostate cancer Du145 cells were exposed to Cpd A or SAHA (3 microM) for 24 hours. Total RNA was collected by Isogen (Nippongene, Tokyo, Japan) and reverse-transcribed to cDNA by ExScript® RT reagent Kit (TAKARA, Kyoto, Japan). The expression level of bFGF mRNA was detected by ABI7700 analyzer using probe/primer pre-mixture reagent (ABI, Cat# Hs00266645_m1, CA, USA) and TaqMan® Universal PCR Master Mix (ABI, Cat# 430-4437) as described in the ABI's protocol. The expression level of VEGF mRNA was detected in a similar manner using the appropriate probe/primer reagents.

For experiment [2], the system named is co-cultured human endothelial cells. The experiment can be described thus: Human multicellular angiogenesis model (AngioKit). The settings on record: AngioKit, 30, 100 and 300 nM. In kind it is cell-based. How it is done:
Briefly, 24 well plates were seeded with cells on day 0 and medium was changed on days 3, 4, 7, 10 and 12. […] All AngioKits were then fixed and stained on day 14, using the CD31 Staining Kits according to the standard AngioKit procedure. Comparison of tubule development was conducted using the “AngioSys” image analysis system developed specifically for the analysis of images produced using the AngioKit. Four images taken from predetermined positions within each well were recorded. Each concentration of test compound therefore yielded […] for analysis in duplicate. Images were always taken from as close to the centre of each quadrant as possible. Four tubule parameters were measured: total tubule length, total tubule area, number of branch points and number of tubules formed. All statistical analyses were carried out using the Stat 100 programme from BIOSOFT Ltd. using ANOVA and Duncan's Multiple Comparison Test to measure differences between the test compounds with the untreated control values. Alpha was always 0.05 unless otherwise stipulated.

Experiment [3] has as its system MT3 transcription in human T-cell leukemia Jurkat-T cells. Briefly: MT3 transcription in Jurkat-T cells, real time RT-PCR. In kind it is cell-based. The settings on record: 24 hours. The method, then:
Total RNAs were extracted from cell pellets or from tumors using QiaShredder and RNeasy mini kit (Qiagen). 1 μg RNA was converted into cDNA using Expand RT enzyme (Roche) and Oligo(dT) primers (Invitrogen) in a 20 μl reaction volume. For quantitative real-time PCR, the primers used for MT3 were [NT] and [NT] and those for β-actin were [NT] and [NT]. Reactions with either pair of primers included an annealing temperature of 63.4° C. All real-time PCR reactions were performed on the MasterCycler ep Realplex (Eppendorf) using FastStart SYBRGreen Master (Roche).
(In general: In qPCR the cycle at which signal appears reflects the starting amount.)

Experiment [4] concerns TSP-1 expression in cancer cells (Du145, H460, A549). The experiment can be described thus: TSP-1 transcription in cancer cells in vitro. In kind it is cell-based, human. Conditions: over time, 3 microM, 24 hours. How it is done: Cells were exposed by Cpd A or SAHA (3 microM) for 24 hours. Total RNA was collected by Isogen (Nippongene, Tokyo, Japan) and reverse-transcribed to cDNA by ExScript® RT reagent Kit (TAKARA, Kyoto, Japan). The expression level of TSP-1 mRNA was detected by ABI7700 analyzer using a probe/primer pre-mixture reagent (ABI, Cat#, CA, USA) and TaqMan® Universal PCR Master Mix (ABI, Cat# 430-4437) as described in the ABI's protocol.

In experiment [5] the test system is VEGF expression in A549 (NSCLC) xenografts. Briefly: VEGF expression in A549 xenografts. In kind it is in vivo. Conditions: 150 mg/kg, p.o., qdx3.
For experiment [6], the system named is human H460 non-small cell lung tumor xenograft. Briefly: H460 xenograft, iv-iv combination with taxol. Format: in vivo, mouse. Conditions: H460, Compound A 40 mg/kg i.v. with taxol 60 mg/kg i.v., single dose day 1. The method, then:
Antitumor studies were done using human H460 non-small cell lung tumor xenograft model in male BALBc/A nude mice (from Japan Crea Inc., Japan). Male nude mice were used at age 8-10 weeks. Human carcinoma cells were injected subcutaneously in the animal flank and allowed to form solid tumors. Tumor fragments (about 2 mm^3 fragments) were then removed and implanted subcutaneously to the right flank of other animals. […] Tumor volumes and gross body weight of animals were monitored twice weekly for up to 15 days. Each experimental group contained 6 animals.

Experiment [7] shares this test system. The experiment can be described thus: H460 xenograft, combination with taxotere. In kind it is in vivo, mouse. The settings on record: H460, oral Compound A 3 times weekly with taxotere i.v. single dose. The method, then:
Antitumor studies were done using human H460 non-small cell lung tumor xenograft model in male BALBc/A nude mice (from Japan Crea Inc., Japan). Male nude mice were used at age 8-10 weeks. Human carcinoma cells were injected subcutaneously in the animal flank and allowed to form solid tumors. Tumor fragments (about 2 mm^2 fragments) were then removed and implanted subcutaneously to the right flank of other animals. […] Tumor volumes and gross body weight of animals were monitored twice weekly for up to 3 weeks. Each experimental group contained 6 animals.

Experiment [8] deals with MT3 transcription in human colon cancer HCT15 cells. Briefly: MT3 transcription in HCT15 cells, microarray analysis. In kind it is cell-based. The settings on record: 1 uM. The text has this:
Total RNAs were extracted and RNA quality analysis was done using Agilent 2100 bioanalyzer and Agilent's RNA Labchip kits. RNAs were labeled with either Cy3 or Cy5 using Agilent's optimized labeling kits and hybridized to Human whole genome 44K Oligo Microarray (Agilent, Palo Alto, Calif.). Slides were scanned using DNA microarry scanner from Agilent and the raw data was extracted using Agilent's image analysis tool (feature extraction software). Normalization and statistical analysis were performed using GeneSpring software. Biological analysis was performed using Biointerpreter software.

Experiment [9] concerns human AZ521 gastric tumor xenograft. Briefly: AZ521 gastric tumor xenograft, combination with taxol. In kind it is in vivo, mouse. Conditions: AZ521, Compound D 40 mg/kg oral daily 14 days with taxol 20 mg/kg i.v. How it is done: Antitumor studies were done using human AZ521 gastric tumor xenograft model in male BALBc/A nude mice (from Japan Crea Inc., Japan). Male nude mice were used at age 8-10 weeks. Human carcinoma cells were injected subcutaneously in the animal flank and allowed to form solid tumors. Tumor fragments (about 2 mm^2 fragments) were then removed and implanted subcutaneously to the right flank of other animals. When the tumor sizes reached about 100 to 200 mm^3, recipient animals were treated Compound D (40 mg/kg, suspended with 0.5% HPMC) by oral administration alone, or taxol by i.v. injection (20 mg/kg), or combination of taxol with oral administration of Compound D. Typically, taxol was administered once per week by iv injection on the first day as a single administration, while Compound D was administered once daily for 14 days. Tumor volumes and gross body weight of animals were monitored twice weekly for up to 2 weeks. Each experimental group contained 6 animals.

Entries after “also recorded” stand apart in the source; their conditions may differ.

Consider `Nc1ccccc1NC(=O)c1ccc(CNc2nccc(-c3cccnc3)n2)cc1` [Compound A], for which the bFGF transcription result in experiment [1] was “more dramatic than by SAHA; also recorded: suppression”. The tubule length result in experiment [2] was “inhibits”. In addition, the MT3 transcription entry in experiment [3] is on record as “dose-dependent induction”. The TSP-1 expression entry in experiment [4] is reported as “induction”. Also, in [5], the VEGF expression entry is on record as “suppression”. The “antitumor activity of taxol” value in [6] is listed as “Potentiation”. For the same molecule, the “antitumor activity of taxotere” value in [7] was “Potentiation”.

Turning to `Nc1ccc(-c2ccccc2)cc1NC(=O)c1ccc(N2CC[C@H](N)C2)cc1` [Compound D], the MT3 transcription result in experiment [8] is reported as “induction”. In addition, the “antitumor activity of taxol” value in [9] is “Potentiation”.

The values above are taken from patent publication US20090124631A1, “Combination Therapy” (priority 2007, published 2009).
